Patent US12060330B2, “Therapeutic indazoles” (priority 2017, dated 2024)
≈ marks a conversion by molar mass, not a printed value.

Legend:
[1] = test system: mycolic acid biosynthesis; format: cell-based, M. tuberculosis
KasA = KasA (Mycobacterium tuberculosis, UniProt P9WQD9); assay: Microscale thermophoresis (MST) binding assay; set-up: species or system M. tuberculosis; details: for EC50: read-out: EC50 (KasA interaction)
M. tuberculosis [2] = details: cited from earlier work
[3] = Mouse liver microsome (MLM) stability
M. tuberculosis [4] = assay: microbe, parasite or virus in culture; format: cell-based; details: for whole-cell activity (in words): SAR relative to DG167; for increase in potency over DG167: relative to DG167
M. tuberculosis H37Rv = assay: RNAseq transcriptional profiling; format: cell-based; details: single drug, 10× MIC, 4 h
M. tuberculosis [5] = assay: Killing studies using CFU measurements; format: cell-based
M. tuberculosis [6] = assay: Lung CFU in infected mice (FIG. 10, PMID: 25421483); format: in vivo; details: compared to INH and vehicle only
M. smegmatis = assay: MIC against nontuberculous mycobacteria
M. fortuitum = assay: MIC against nontuberculous mycobacteria
[7] = Dose escalation and drug tolerability in mice; format: in vivo
Experimental: All animal experiments were conducted in compliance with and approved by the Institutional Animal Care and Use Committee of the New Jersey Medical School, Rutgers University.
The mice were weighed and observed daily. Their behavior, drinking and feeding patterns, and feces were monitored and recorded. Upon necropsy, liver, gall bladder, kidney and spleen pathology were observed as well.

CYP2C19 = CYP2C19 (Homo sapiens, UniProt P33261); assay: Cytochrome P450 (CYP) inhibition; format: in vitro ADME
Kinetic solubility = details: pH 7.4 phosphate-buffered saline (PBS)
CYP enzymes = assay: Cytochrome P450 (CYP) inhibition; details: CYP enzymes except CYP2C19
M. marinum = assay: MIC against nontuberculous mycobacteria
M. abscessus = assay: MIC against nontuberculous mycobacteria
M. avium = assay: MIC against nontuberculous mycobacteria
Caco-2 permeability = details: human
[8] = Mouse pharmacokinetic studies (plasma, LC-MS/MS); format: in vivo; details: mice
Experimental: DG1167 levels in plasma were measured by LC-MS/MS in electrospray positive-ionization mode (ESI+) on a Sciex Qtrap 4000 triple-quadrupole mass combined with an Agilent 1260 HPLC using Analyst software. […] Multiple-reaction monitoring (MRM) of parent/daughter transitions in electrospray positive-ionization mode (ESI+) was used to quantify DG167. […] Extracts were vortexed for 5 minutes and centrifuged at 4000 RPM for 5 minutes. The supernatants were analyzed by LC-MS. Verapamil IS was sourced from Sigma-Aldrich.

Sequence of KasA (P9WQD9 whole entry): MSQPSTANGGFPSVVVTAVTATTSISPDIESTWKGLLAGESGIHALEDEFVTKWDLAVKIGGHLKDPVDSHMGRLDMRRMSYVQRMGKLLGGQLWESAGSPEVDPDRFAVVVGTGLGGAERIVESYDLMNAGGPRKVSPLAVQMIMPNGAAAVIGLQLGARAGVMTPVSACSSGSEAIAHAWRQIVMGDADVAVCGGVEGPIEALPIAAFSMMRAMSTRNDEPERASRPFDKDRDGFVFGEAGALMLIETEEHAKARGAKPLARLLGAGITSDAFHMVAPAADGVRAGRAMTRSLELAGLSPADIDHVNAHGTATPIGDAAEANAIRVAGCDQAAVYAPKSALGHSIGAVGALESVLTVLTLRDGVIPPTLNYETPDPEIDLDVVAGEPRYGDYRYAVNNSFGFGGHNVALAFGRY
Sequence of CYP2C19 (P33261 whole entry, species assumed): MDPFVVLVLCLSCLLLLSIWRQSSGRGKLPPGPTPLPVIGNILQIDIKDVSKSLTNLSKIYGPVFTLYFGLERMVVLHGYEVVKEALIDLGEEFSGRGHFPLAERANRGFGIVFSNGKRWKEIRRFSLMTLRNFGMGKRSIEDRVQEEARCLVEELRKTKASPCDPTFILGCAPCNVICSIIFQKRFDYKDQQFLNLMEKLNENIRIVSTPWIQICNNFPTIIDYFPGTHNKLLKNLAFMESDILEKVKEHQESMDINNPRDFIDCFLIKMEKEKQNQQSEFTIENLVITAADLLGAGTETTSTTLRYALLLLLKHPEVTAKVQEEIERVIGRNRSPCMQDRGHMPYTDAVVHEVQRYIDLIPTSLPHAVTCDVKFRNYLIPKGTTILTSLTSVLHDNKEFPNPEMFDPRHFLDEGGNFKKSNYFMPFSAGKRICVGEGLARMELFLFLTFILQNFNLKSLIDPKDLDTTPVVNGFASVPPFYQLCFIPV

## CCCCS(=O)(=O)Nc1ccc2cn[nH]c2c1 [Example 1, N-(1H-indazol-6-yl)butane-1-sulfonamide]
[1]
  inhibition of mycolic acid biosynthesis: did not show any inhibition
KasA
  EC50: 1.74 ± 0.221 µM

## CC12C[C@@]34C=CC(=O)[C@@](C)(CCC(=O)Nc5c(O)ccc(C(=O)O)c5O)C3[C@H](CC1C4)O2 (stereo partly drawn) [platensimycin]
M. tuberculosis [2]
  whole-cell activity in M. tuberculosis: 27 µM

## C=C/C(C)=C/[C@@]1(C)SC(=O)C(C)=C1O [thiolactomycin]
M. tuberculosis [2]
  whole-cell activity in M. tuberculosis: 142 µM

## [2H]C([2H])([2H])n1ncc2ccc(NS(=O)(=O)CCCC)cc21 [Example 29, N-(1-(methyl-d3)-1H-indazol-6-yl)butane-1-sulfonamide]
[3]; mouse liver microsomes
  MLM t1/2: 16.8 min

## CCCCCS(=O)(=O)Nc1ccc2cnn(C)c2c1 [Example 11, N-(1-methyl-1H-indazol-6-yl)pentane-1-sulfonamide]
M. tuberculosis [4]
  whole-cell activity (in words): increased the activity over the parent by twofold
  increase in potency over DG167: 2 fold

## NNC(=O)c1ccncc1 [INH, isoniazid, reference compound]
M. tuberculosis H37Rv
  gene expression change (in words): strongly induced expression of kasA, kasB, acpM genes, the iniBAC operon
M. tuberculosis [5]; 10× MIC of each drug
  killing pattern (in words): rapid reduction of viable CFU followed by rapid re-growth

## Cc1n[nH]c2ccc(NS(=O)(=O)CCCCF)cc12 [Example 43, 4-Fluoro-N-(3-methyl-1H-indazol-5-yl)butane-1-sulfonamide]
M. tuberculosis [6]
  M. tuberculosis colony-forming units in the lungs: reduction of M. tuberculosis colony-forming units in the lungs

## CCCCNC(=S)Nc1ccc2cnn(C)c2c1 [Example 33, 1-Butyl-3-(1-methyl-1H-indazol-6-yl)thiourea]
M. tuberculosis [4]; Mycobacterium tuberculosis, whole-cell
  MIC: 3.1 µM (≈ 0.813 µg/mL)
M. tuberculosis [4]
  whole-cell activity (in words): loss of activity

## CCCCS(=O)(=O)Nc1ccc2[nH]nc(C)c2c1 [Example 41, N-(3-methyl-1H-indazol-5-yl)butane-1-sulfonamide]
KasA
  Kd: 0.0465 ± 0.0187 µM
M. tuberculosis [4]
  improvement over DG167 in MIC / whole-cell activity: 2 ×

## [2H]C([2H])([2H])n1ncc2ccc(NS(=O)(=O)CCCCC)cc21 [Example 30, N-(1-(methyl-d3)-1H-indazol-6-yl)pentane-1-sulfonamide]
M. tuberculosis [4]
  whole-cell activity (in words): increased the activity over the parent by twofold
  increase in potency over DG167: 2 fold

## CCCCS(=O)(=O)N(C)c1ccc2cnn(C)c2c1 [Example 32, N-methyl-N-(1-methyl-1H-indazol-6-yl)butane-1-sulfonamide]
M. tuberculosis [4]
  whole-cell activity (in words): loss of activity

## CCCCS(=O)(=O)Nc1ccc2cnn(C)c2c1 [DG167, N-(1-methyl-1H-indazol-6-yl)butane-1-sulfonamide]
[1]
  accumulation of FAS-I products: caused accumulation of C16-C26 short-chain fatty-acids
M. tuberculosis H37Rv
  gene expression change (in words): strongly induced expression of kasA, kasB, acpM genes, the iniBAC operon
M. tuberculosis [5]; 10× or 20× MIC, over seven days
  reduction of viable colony-forming units (CFU): 2 log 10
M. smegmatis
  MIC: > 100 µM
KasA
  EC50: 0.131 ± 0.0182 µM
M. fortuitum
  MIC: > 100 µM
[7]; 50 and 100 mg/kg, monitored 8 hours
  tolerability, dose escalation: well tolerated
[7]; 5 d, DG167 50 or 100 mg/kg, or DG167 100 mg/kg with INH 25 mg/kg
  dose tolerability for 5 d: did not show any behavioral changes or weight loss
[7]; higher doses (250, 500 mg/kg)
  tolerability, dose escalation: heavy breathing, hunched posture and decreased activity
CYP2C19
  IC50: 12 µM
Kinetic solubility
  kinetic solubility: 324 µM (≈ 86.6 µg/mL)
[3]; in the absence of NADPH
  MLM t1/2: > 300 min
[3]; mouse liver microsomes
  MLM t1/2: 10.1 min
CYP enzymes
  CYP inhibition (in words): did not significantly inhibit
M. marinum
  MIC: > 100 µM
M. abscessus
  MIC: > 100 µM
M. avium
  MIC: > 100 µM
Caco-2 permeability
  Papp A→B: 71.8 ×10⁻⁶ cm/s
  Papp B→A: 45.6 ×10⁻⁶ cm/s
[8]; IV 5 mg/kg
  half-life (t1/2): 19.8 min
[8]; IV 5 mg/kg, 5% DMA/40% PEG300/55% D5W
  AUC [0-t]: 1751.25 ng·h/mL
[8]; PO 25 mg/kg, 0.5% CMC/0.5% Tween 80, plasma
  AUC [0-t]: 8083.96 ng·h/mL
[8]; single oral dose 25 mg/kg
  time plasma levels maintained above the MIC: over 4 hours
[8]; single oral dose 25 mg/kg, plasma
  AUC [0-t]: 8083.96 h*ng/m

## CCCCCCS(=O)(=O)Nc1ccc2cnn(C)c2c1 [Example 12, N-(1-methyl-1H-Indazol-6-yl)hexane-1-sulfonamide]
M. tuberculosis [4]
  whole-cell activity (in words): inactive
